The experiment relates to MAGI-CCR5 cells, HIV-1 Ba-L, beta-gal luminescence, 48 h. Description: anti-HIV-1 activity in MAGI-CCR5 cells – cell-based, HIV-1 Ba-L, beta-gal reporter, 5%/10% serum, SAR follow-up (AID 2644).
The mark [1] stands for this setting: measured here: antiviral IC50 in 10% serum.

Activity calls are given as the source filed them.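 Rule for the calls: active = compounds cutting the HIV-1 infection reporter signal by at least 50%; inactive = the rest.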

On to `CCC(Sc1nc2ccsc2c(=O)n1Cc1ccc(C(=O)O)cc1)C(=O)Nc1ccc(C)c(Cl)c1` (configuration not stated), for which the IC50 is 14.6 µM. This compound yielded an IC50 under setting [1] of 37.8 µM.

For `O=C(O)CCCN1C(=O)/C(=C/c2ccc(-c3nc4ccccc4s3)o2)SC1=S`, the IC50 is 80.8 µM. Also, under setting [1], the IC50 amounted to 95.4 µM.

Regarding `CCC(C)(C)C1CCc2c(sc(NC(=O)c3ccccc3C(=O)O)c2C#N)C1` (configuration not stated), the IC50 was > 100 µM (inactive). Besides, the IC50 under setting [1] is > 100 µM.

In the case of `CC(C)NC(=O)c1sc(=S)n2c1[nH]c(=O)c1ccc(C(=O)NCCc3ccc(Cl)cc3)cc12`, the IC50 was 35.1 µM. The compound further returned a half-maximal inhibitory concentration (IC50) under setting [1] of 63.4 µM.

Regarding `O=C1NC(=S)N(c2ccc(F)cc2)C(=O)/C1=C\c1ccoc1`, the IC50 was > 100 µM (inactive). For the same compound, the IC50 under setting [1] is > 100 µM.

For the compound `Oc1c(Cl)cc(Cl)c(Cl)c1Cc1c(O)c(Cl)cc(Cl)c1Cl`, the IC50 was 49.3 µM. Besides, under setting [1], the IC50 was > 100 µM.

In the case of `O=C(O)c1ccccc1N=Nc1c(O)[nH]c2ccc([N+](=O)[O-])cc12`, the IC50 is > 100 µM (inactive). Further, the IC50 under setting [1] was > 100 µM.

Regarding `COc1cc(/C=N/NS(=O)(=O)c2ccc3ccccc3c2)ccc1OCc1ccc(C(=O)O)cc1`, the IC50 was > 100 µM (inactive). The IC50 under setting [1] was > 100 µM.

As for `CCOC(=O)c1sc(N2C(=O)C(O)=C(C(=O)c3ccc(C)o3)C2c2cccc([N+](=O)[O-])c2)nc1C` (configuration not stated), the IC50 is 20.6 µM. Under setting [1], the IC50 amounted to 18.5 µM.

Regarding `CCOc1cc(/C=C2\SC(=O)N(CC(=O)Nc3ccccc3F)C2=O)cc([N+](=O)[O-])c1O`, the IC50 was 21 µM. Moreover, the 50% inhibitory concentration (IC50) under setting [1] was 26.3 µM.

Regarding `Cc1c(Cl)cccc1NS(=O)(=O)c1ccc2c(c1)C1C=CCC1C(c1ccc(C(=O)O)cc1)N2` (configuration not stated), the IC50 was 16.7 µM. Under setting [1], this compound returned an IC50 of 40.6 µM.

Consider `N#C/C(=C\c1ccc(OCc2ccc(Cl)cc2)cc1)C(=O)Nc1cccc(C(=O)O)c1`, for which the IC50 was > 100 µM (inactive). Further, the IC50 under setting [1] was > 100 µM.

For the compound `N#C/C(=C\c1ccc(O)c([N+](=O)[O-])c1)c1nc2ccccc2s1`, the IC50 was 7.96 µM. Also, the IC50 under setting [1] worked out at 15.1 µM.

For the compound `CSc1nnc(-c2ccccc2N=Cc2c(C)[nH]n(-c3ccc4ccccc4c3)c2=O)c(=O)[nH]1`, the IC50 was 53.1 µM. For the same compound, the IC50 under setting [1] was > 100 µM.

Take `COc1cc(/C=C2\SC(=O)N(c3ccccc3Cl)C2=O)cc([N+](=O)[O-])c1O`: the concentration for half-maximal inhibition (IC50) is 13.9 µM. The IC50 under setting [1] turned out to be 23.8 µM.

For `O=C(N/N=C/c1c(O)n(C2CCCCC2)c(=S)[nH]c1=O)c1ccccc1O`, the IC50 is 46.4 µM. Also, the IC50 under setting [1] was 45 µM.

For the compound `Cc1c2c(=O)n(-c3nc4ccccc4s3)nc-2cc(O)n1Cc1ccccc1`, the half-inhibitory concentration (IC50) was 12.5 µM. Under setting [1], the IC50 amounted to 11.1 µM.

Regarding `CC(C)(C)c1cc(-c2csc(Nc3ccccc3)[n+]2Cc2ccc(C(=O)O)cc2)cc(C(C)(C)C)c1O`, the IC50 is 7.17 µM. The compound further had an IC50 under setting [1] of 12.3 µM.

Regarding `COC(=O)c1sc(-c2ccc(C(C)(C)C)cc2)cc1NC(=O)c1ccccc1C(=O)O`, the IC50 is 49.9 µM. The IC50 under setting [1] was 54.9 µM.

As to `CCOC(=O)C1=C(C)N=c2sc(=Cc3ccc(OCC(=O)O)cc3)c(=O)n2C1c1ccc(OC(C)C)cc1` (configuration not stated), the IC50 is 20.9 µM. Further, the half-inhibitory concentration (IC50) under setting [1] was found to be 26 µM.

For the compound `O=[N+]([O-])c1cc([N+](=O)[O-])c2oc(-c3ccccc3)c(Br)c2c1O`, the IC50 was 4.46 µM. Besides, the IC50 under setting [1] came out at 9.38 µM.

In general, IC50 refers to the concentration needed to halve the response being measured.

These data come from PubChem BioAssay AID2644 (Southern Research Specialized Biocontainment Screening …, 2010).
